Entries after “also recorded” stand apart in the source; their conditions may differ.
Experiments:
R-type Ca^2+ channel = assay: Ca2+ channel blockers tested on the R-type channel (data not shown); type: cell-based
[1] = test system: writhing response in mice; assay: Writhing response in mice (acetic acid, acetylcholine, kaolin); type: in vivo; conditions: i.p., mice; for ID50 ACETYLCHOLINE: acetylcholine-induced writhes; for ID50 KAOLIN: kaolin-induced writhes
Description: The antinociceptive actions of compound MV 8612 and MV 8608 were investigated in different models of nociception in mice as reported previously (Vaz et al., 1996, J. Pharmacol. Exp. Ther. 278:304–312).

tail-flick = assay: Tail-flick in mice; type: in vivo; conditions: i.p.
[2] = test system: plasma ET-1, attacks of Raynaud's phenomenon; conditions: patients, La Civita et al. 1996; cited from earlier work
[3] = test system: vasoconstriction, hypotension and airways hypereactivity induced by PAF, ET-1 and organ transplantation; assay: In vivo tests in rats, rabbits and guinea pigs (summary); conditions: rabbits, guinea pigs
L-type Ca^2+ channel = assay: Isradipine on L-type channel (data not shown); type: cell-based; conditions: read-out: ED50, block of L-type Ca2+ channel
MG63 and FAOS-2 = assay: Spontaneous proliferation of human osteoblast cancer lines; type: cell-based; conditions: 10^−8M
[4] = test system: circulating ET-1, blood flow, hypertension
anaesthetized rat = assay: Anaesthetized rat, blood pressure and PAF hypotension; type: in vivo; conditions: rat, results not shown
Description: On the other hand, in vivo administered PAF, induced a marked hypotension in the anaesthetized rat and guinea pig.

Structure (SMILES): COc1ccc([C@@H]2Sc3cc(Cl)ccc3N(CCN(C)C)C(=O)[C@@H]2OC(C)=O)cc1 [Clentiazem]
- block of R-type Ca2+ channel (R-type Ca^2+ channel): none were found to block the R-type Ca^2+

Structure (SMILES): COc1ccc(CCN(C)CCCC(C#N)(c2cc(OC)c(OC)c(OC)c2)C(C)C)cc1OC (stereo not shown) [D600]
- block of R-type Ca2+ channel (R-type Ca^2+ channel): none were found to block the R-type Ca^2+

Structure (SMILES): COc1cccc(CCN(C)CCCC(C#N)(c2ccc(OC)c(OC)c2)C(C)C)c1 (stereo not shown) [D888]
- block of R-type Ca2+ channel (R-type Ca^2+ channel): none were found to block the R-type Ca^2+

Structure (SMILES): COc1ccc([C@@H]2Sc3ccccc3N(CCN(C)C)C(=O)[C@@H]2OC(C)=O)cc1 [Diltiazem]
- block of R-type Ca2+ channel (R-type Ca^2+ channel): none were found to block the R-type Ca^2+

Structure (SMILES): COc1ccc2c(c1)c(CC(=O)O)c(C)n2C(=O)c1ccc(Cl)cc1 [INDOMETHACIN, indomethacin, reference compound]
- ID50 ACETIC ACID ([1]; acetic acid-induced writhes): 1.2 (0.9–1.4) μmol/kg
- ID50 ACETYLCHOLINE [1]: 0.8 (0.5–1.0) μmol/kg
- ID50 KAOLIN [1]: 1.6 (1.4–1.8) μmol/kg

Structure (SMILES): CN1CC[C@]23c4c5ccc(O)c4O[C@H]2[C@@H](O)C=C[C@H]3[C@H]1C5 [MORPHINE, morphine, reference compound]
- ID50 ACETYLCHOLINE [1]: 1.4 (1.0–1.8) μmol/kg
- ID50 KAOLIN [1]: 1.4 (1.2–1.7) μmol/kg
- ID50 TAIL-FLICK (tail-flick): 6.0(5.7–6.4) μmol/kg

Structure (SMILES): COc1ccc(CCN(C)CCCC(C#N)(c2ccc(OC)c(OC)c2)C(C)C)cc1OC (stereo not shown) [Verapamil]
- block of R-type Ca2+ channel (R-type Ca^2+ channel): none were found to block the R-type Ca^2+

Structure (SMILES): COC(=O)C1=C(C)NC(C)=C(C(=O)OC(C)C)C1c1cccc2nonc12 (stereo not shown) [isradipine]
- elevated plasma ET-1 level and frequency, severity of acute attacks of Raynaud's phenomenon [2]: significantly reduced
- side effects in vivo [3]: exhibited significant side effects
- EC50 (L-type Ca^2+ channel): ~1000 nM
- spontaneous cell proliferation (MG63 and FAOS-2): reduced spontaneous cell proliferation
- hypertension and ET-1 plasma elevation associated with cyclosporin A (Sandimmune) treatment ([4]; allograft transplant, listed as Lomir/Dynacirc): blocked hypertension and ET-1 plasma elevation; also recorded: blocks the elevated circulating endothelin level
- increase of circulating ET-1 and decrease of blood flow ([4]; organ transplants, rabbit, cyclosporin-A treated): restored ET-1 and blood flow levels
- intrinsic hypotensive effect (anaesthetized rat): marked intrinsic hypotensive properties

Structure (SMILES): COC(=O)C1=C(C)NC(C)=C(C(=O)OC)C1c1ccccc1[N+](=O)[O-] [nifedipine]
- intrinsic hypotensive effect (anaesthetized rat): marked intrinsic hypotensive properties

From US7109175B1, “Specific steady-state R-type CA2+ channel blockers and use thereof” (Universite de Sherbrooke, priority 2000, dated 2006)
